In US8895585B2, “Nicotinamide derivative or salt thereof” (FUJIFILM Corporation, priority 2010, dated 2014) one finds IC50 data, which are given here for 39 molecules.

In general, pIC50 refers to −log10 of the IC50, conventionally taken in molar units.

Structures are written as SMILES. pIC50: −log10 of the molar value. Like-named read-outs stand apart in the source and are kept apart here. Where only a bound is given, the exact number is not on record here.

This assay concerns the target T1, glutathione S-transferase (GST)-fused full-length human Syk protein (Homo sapiens, UniProt P43405).
T1 construct: (GST)-fused full-length human Syk protein; GST (glutathione S-transferase); purchased Carna Biosciences
The assay is described as follows: Syk enzyme assay. The format is biochemical. Summed up: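 Baculovirus-expressed enzyme (1.2 ng) was preincubated with compound in HEPES pH 7.0/MgCl2/DTT buffer, 2 min shaking then 13 min at room temperature. Biotin-EDPDYEWPSA-NH2 (0.4 μM final) and ATP (27 μM final) were added for 40 min at room temperature. EDTA stop, streptavidin-XL/PT66-K TR-FRET at 615/665 nm gave IC50.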

The mark [1] stands for this setting: Syk enzyme assay, Test Example 1, read-out: IC50 of Syk-inhibitory activity.
Where [2] appears, read: read-out: Syk-inhibitory activity (IC50).

On to `NC(=O)c1cc(F)c(NC2CCCC[C@@H]2N)nc1Nc1cnc2c(NS(=O)(=O)Cc3ccccc3)cccc2c1` (stereo partly drawn) [Example 41-9, 6-(cis-2-aminocyclohexylamino)-5-fluoro-2-((8-(phenylmethylsulphonamide)quinolin-3-yl)amino)nicotinamide], for which the negative logarithm of the IC50 (pIC50) under setting [1] was 7.30 to 8.00.

Take `CC(=O)N(C)c1cccc2cc(Nc3nc(N[C@@H]4CCCC[C@@H]4N)c(F)cc3C(N)=O)cnc12` [Example 004-034]: the pIC50 under setting [1] was 7.00 to 7.30.

Consider `NC(=O)c1cc(F)c(NC2CCCCC2N)nc1Nc1ccnc(-c2ccc3c(c2)NC(=O)CO3)c1` (stereo not drawn) [Example 002-178], for which the pIC50 under setting [1] is more than 8.00.

For the molecule `COc1cccc(-c2cncc(Nc3nc(N[C@@H]4CCCC[C@@H]4N)c(F)cc3C(N)=O)c2)n1` (relative stereo) [Example 004-230, 6-((cis-2-aminocyclohexyl)amino)-5-fluoro-2-((6-methoxy-[2,3′-bipyridin]-5′-yl)amino)nicotinamide], the negative logarithm of the IC50 (pIC50) under setting [1] was 7.30 to 8.00.

Consider `CC[C@@H](Nc1nc(Nc2ccnc(-n3nccn3)c2)c(C(N)=O)cc1F)[C@H](C)N` [Example 006-254, 2-((2-(2H-1,2,3-triazol-2-yl)pyridin-4-yl)amino)-6-(((2S,3R)-2-aminopentan-3-yl)amino)-5-fluoronicotinamide], for which the negative logarithm of the IC50 (pIC50) under setting [1] was 7.30 to 8.00.

Consider `NC(=O)c1cc(F)c(NC2CCCCC2N)nc1Nc1cncc(-c2cccc3cccnc23)c1` (stereo not drawn) [Example 002-181], for which the negative logarithm of the IC50 (pIC50) under setting [1] is 7.00 to 7.30.

As to `NC(=O)c1cc(F)c(NCCO)nc1Nc1ccc2ncccc2c1` [Example 012-021], under setting [1], the negative logarithm of the IC50 (pIC50) was more than 8.00.

As to `COCCn1ncc2cc(Nc3nc(N[C@H](C)[C@H](C)N)c(F)cc3C(N)=O)ccc21` (racemic) [Example 006-197, 6-(((2R,3S)-3-aminobutan-2-yl)amino)-5-fluoro-2-((1-(2-methoxyethyl)-1H-indazol-5-yl)amino)nicotinamide 6-(((2S,3R)-3-aminobutan-2-yl)amino)-5-fluoro-2-((1-(2-methoxyethyl)-1H-indazol-5-yl)amino)nicotinamide], the pIC50 under setting [1] is 7.30 to 8.00.

For `CCOCCOCCOc1ncc(Nc2nc(N[C@@H]3CCCC[C@@H]3N)c(F)cc2C(N)=O)c2ccccc12` (relative stereo) [Example 004-152, 6-(cis-2-aminocyclohexylamino)-2-((1-(2-(2-ethoxyethoxy)ethoxy)isoquinolin-4-yl)amino)-5-fluoronicotinamide], under setting [1], the negative-log IC50 (pIC50) is 6.00 to 7.00.

Take `COCCn1ccc2c(Nc3nc(N[C@@H]4CCCC[C@@H]4N)c(F)cc3C(N)=O)cc(C(F)(F)F)cc21` [Example 004-088]: under setting [1], the pIC50 was more than 8.00.

`COCCOc1ncc(Nc2nc(N[C@@H]3CCCC[C@@H]3N)c(F)cc2C(N)=O)c2ccccc12` (relative stereo) [Example 004-150, 6-(cis-2-aminocyclohexylamino)-5-fluoro-2-((1-(2-methoxyethoxy)isoquinolin-4-yl)amino)-nicotinamide]: the negative logarithm of the IC50 (pIC50) under setting [1] is 6.00 to 7.00.

For `CCn1nc(C(C)C)c2cc(Nc3nc(N[C@@H]4CCCC[C@@H]4N)c(F)cc3C(N)=O)ccc21` [Example 006-462, 6-(((1R,2S)-2-aminocyclohexyl)amino)-2-((1-ethyl-3-isopropyl-1H-indazol-5-yl)amino)-5-fluoronicotinamide], the negative logarithm of the IC50 (pIC50) under setting [1] was more than 8.00.

Turning to `COc1cc(Nc2nc(N[C@H](c3ccccc3)[C@@H](N)c3ccccc3)c(F)cc2C(N)=O)ccn1` [Example 006-139], the negative-log IC50 (pIC50) under setting [1] was 7.30 to 8.00.

As to `NC(=O)c1cc(F)c(N[C@@H]2CCCC[C@@H]2N)nc1Nc1cnc2c(O)cccc2c1` (relative stereo) [Example 004-124, 6-(cis-2-aminocyclohexylamino)-5-fluoro-2-((8-hydroxyquinolin-3-yl)amino)nicotinamide], the pIC50 under setting [1] was more than 8.00.

Consider `CC(C)(C)[C@@H](Nc1nc(Nc2ccc3ncccc3c2)c(C(N)=O)cc1F)C(N)=O` [Example 012-037], for which the pIC50 under setting [1] was 7.00 to 7.30.

Take `CCOCCOCCn1cc2ccc(Nc3nc(NC4CCCCC4N)c(F)cc3C(N)=O)cc2n1` (stereo not drawn) [Example 002-045]: the pIC50 under setting [1] was 7.30 to 8.00.

As for `NC(=O)c1cc(F)c(N[C@H](Cc2ccccc2)C(N)=O)nc1Nc1cnc2ccccc2c1` [Example 12-25], the pIC50 under setting [2] was not below 6.00.

On to `COc1ccc(-c2cc(Nc3nc(NC4CCCCC4N)c(F)cc3C(N)=O)ccn2)cc1` (stereo not drawn) [Example 002-184], for which, under setting [1], the pIC50 was more than 8.00.

On to `NC(=O)c1cc(F)c(N[C@H](Cc2ccccc2)c2ncc[nH]2)nc1Nc1ccc2ncccc2c1` [Example 012-029], for which the negative logarithm of the IC50 (pIC50) under setting [1] is 6.00 to 7.00.

`COCCOc1cnc2cc(Nc3nc(N[C@@H]4CCCC[C@@H]4N)c(F)cc3C(N)=O)ccc2n1` (relative stereo) [Example 004-178, 6-(cis-2-aminocyclohexylamino)-5-fluoro-2-((2-(2-methoxyethoxy)quinoxalin-6-yl)amino)-nicotinamide]: under setting [1], the pIC50 was 7.30 to 8.00.

For the molecule `C[C@H](N)[C@@H](CC1CC1)Nc1nc(Nc2ccc3c(cnn3CC(F)F)c2)c(C(N)=O)cc1F` [Example 006-426, 6-(((2R,3S)-3-amino-1-cyclopropylbutan-2-yl)amino)-2-((1-(2,2-difluoroethyl)-1H-indazol-5-yl)amino)-5-fluoronicotinamide], under setting [1], the pIC50 is 6.00 to 7.00.

Turning to `CS(=O)(=O)Nc1cccc2cc(Nc3nc(N[C@@H]4CCCC[C@@H]4N)c(F)cc3C(N)=O)cnc12` (relative stereo) [Example 41-2, 6-(cis-2-aminocyclohexylamino)-5-fluoro-2-((8-(methylsulphonamide)quinolin-3-yl)amino)nicotinamide], the negative logarithm of the IC50 (pIC50) under setting [1] is more than 8.00.

Regarding `CCC(N)CNc1nc(Nc2ccc3ncccc3c2)c(C(N)=O)cc1F` (stereo not drawn) [Example 014-004], under setting [1], the pIC50 was 7.30 to 8.00.

`CCCC[C@@H](Nc1nc(Nc2ccc3c(cnn3CC(F)F)c2)c(C(N)=O)cc1F)[C@H](C)N` [Example 006-425, 6-(((2S,3R)-2-aminoheptan-3-yl)amino)-2-((1-(2,2-difluoroethyl)-1H-indazol-5-yl)amino)-5-fluoronicotinamide]: the negative logarithm of the IC50 (pIC50) under setting [1] was 7.30 to 8.00.

With `NC(=O)c1cc(F)c(N[C@@H]2CCCC[C@@H]2N)nc1Nc1cncc(-c2ccccc2OCC2CC2)c1` [Example 004-184], the pIC50 under setting [1] was 7.30 to 8.00.

In the case of `NC(=O)c1cc(F)c(NCc2cnn[nH]2)nc1Nc1ccc2ncccc2c1` [Example 12-27, 5-fluoro-2-(quinolin-6-ylamino)-6-(((1H-1,2,3-triazol-5-yl)methyl)amino)nicotinamide], the pIC50 under setting [2] is not below 6.00.

For the molecule `NC(=O)c1cc(F)c(NC2CCCCC2N)nc1Nc1cc(N2CCOCC2)ncc1F` (stereo not drawn) [Example 002-166], the pIC50 under setting [1] was 6.00 to 7.00.

For the molecule `COc1cc(Nc2nc(NC(C)C(N)=O)c(F)cc2C(N)=O)cc(OC)c1` (stereo not drawn) [Example 33-1, 6-((2-amino-1-methyl-2-oxoethyl)amino)-2-(3,5-dimethoxyphenylamino)-5-fluoronicotinamide], the pIC50 under setting [2] is not below 6.00.

Turning to `Cc1cc(Nc2nc(N[C@H](CCCN(C)C)[C@H](C)N)c(F)cc2C(N)=O)cnc1C` [Example 046-000], under setting [1], the pIC50 is 6.00 to 7.00.

As to `Cc1nc2ccc(Nc3nc(NCCN)c(F)cc3C(N)=O)cc2s1` [Example 6-21, 6-((2-aminoethyl)amino)-5-fluoro-2-((2-methylbenzo[d]thiazol-6-yl)amino)nicotinamide], the pIC50 under setting [2] is not below 6.00.

Turning to `Cn1ncc2cc(Nc3nc(N[C@H](c4ccccc4)[C@@H](N)c4ccccc4)c(F)cc3C(N)=O)ccc21` (racemic) [Example 006-136, 6-(((1R,2S)-2-amino-1,2-diphenylethyl)amino)-5-fluoro-2-((1-methyl-1H-indazol-5-yl)amino)nicotinamide 6-(((1S,2R)-2-amino-1,2-diphenylethyl)amino)-5-fluoro-2-((1-methyl-1H-indazol-5-yl)amino)nicotinamide], the negative-log IC50 (pIC50) under setting [1] is more than 8.00.

Take `COc1cc(Nc2nc(NCCc3c[nH]c4ccccc34)c(F)cc2C(N)=O)cc(OC)c1` [Example 19, 2-(3,5-dimethoxyphenylamino)-5-fluoro-6-(2-(1H-indole-3-yl)ethylamino)nicotinamide]: under setting [2], the pIC50 is not below 6.00.

As to `NC(=O)c1cc(F)c(N[C@@H]2CCCC[C@@H]2N)nc1Nc1ccc2[nH]c(C(=O)N3CCOCC3)cc2c1` (relative stereo) [Example 029-017, 6-(cis-2-aminocyclohexylamino)-5-fluoro-2-((2-(morpholine-4-carbonyl)-1H-indol-5-yl)amino)nicotinamide], the pIC50 under setting [1] was more than 8.00.

As to `COc1ncc(Nc2nc(N[C@@H]3CCCC[C@@H]3N)c(F)cc2C(N)=O)c2ccccc12` (relative stereo) [Example 004-153, 6-(cis-2-aminocyclohexylamino)-5-fluoro-2-((1-methoxyisoquinolin-4-yl)amino)-nicotinamide], the negative logarithm of the IC50 (pIC50) under setting [1] was 6.00 to 7.00.

For the molecule `NC(=O)c1cc(F)c(N[C@@H]2CCCC[C@@H]2N)nc1Nc1ccc2nc(-n3cccn3)ccc2c1` (relative stereo) [Example 004-203, 2-((2-(1H-pyrazol-1-yl)quinolin-6-yl)amino)-6-(cis-2-aminocyclohexylamino)-5-fluoronicotinamide], the pIC50 under setting [1] is more than 8.00.

With `Cc1cc(C)cc(Nc2nc(NCCN)c(Cl)cc2C(N)=O)c1` [Example 035-008], the negative logarithm of the IC50 (pIC50) under setting [1] is more than 8.00.

As for `NCC(CCC(F)(F)F)Nc1nc(Nc2cncc(-c3ccccc3)c2)c(C(N)=O)cc1F` (stereo not drawn) [Example 006-305, 6-((1-amino-5,5,5-trifluoropentan-2-yl)amino)-5-fluoro-2-((5-phenylpyridin-3-yl)amino)nicotinamide], the negative-log IC50 (pIC50) under setting [1] is 7.30 to 8.00.

`NC(=O)CNc1nc(Nc2ccc3ncccc3c2)c(C(N)=O)cc1F` [Example 012-019]: the negative logarithm of the IC50 (pIC50) under setting [1] was 7.00 to 7.30.

In the case of `CC1(C)Oc2cccnc2N(c2ccc(Nc3nc(NC4CCCCC4N)c(F)cc3C(N)=O)cn2)C1=O` (stereo not drawn) [Example 002-159], the pIC50 under setting [1] was 6.00 to 7.00.
